Test results from article PMC8909036 (Cells, 2022).

Columns and labels:
NbPYL1b = target: T1, NbPYL1b (Nicotiana benthamiana, UniProt Z9Z2X8O5T5); assay: ligand-dependent inhibition of PP2C HAB1 by receptor, pNPP, […] nm; assay type: biochemical; settings: 0.5 μM ΔN-HAB1, 1 or 2 μM NbPYL1b, 25 mM pNPP, 2 mM MnCl2, 25 mM Tris HCl pH 7.5; agonist, IC50 read on HAB1 activity
T1 construct: full ORF amplified from Nb genomic DNA (CDS 678 nt, 225 residues by count) in pETM11, His-tagged, E. coli BL21(DE3), Ni-NTA; dimer in gel filtration (apo); assayed with N-terminally truncated HAB1 (ΔN-HAB1); with Protein phosphatase 2C 16
T1 sequence (Z9Z2X8O5T5 1-225): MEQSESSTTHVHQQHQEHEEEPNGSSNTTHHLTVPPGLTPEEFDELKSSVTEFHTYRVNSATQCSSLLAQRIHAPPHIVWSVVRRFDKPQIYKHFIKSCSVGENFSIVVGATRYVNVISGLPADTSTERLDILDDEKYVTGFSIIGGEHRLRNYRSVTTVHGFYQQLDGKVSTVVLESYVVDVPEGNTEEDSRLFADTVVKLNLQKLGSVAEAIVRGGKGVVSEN
T1 sequence (Q9CAJ0 172-511 partner limits assumed): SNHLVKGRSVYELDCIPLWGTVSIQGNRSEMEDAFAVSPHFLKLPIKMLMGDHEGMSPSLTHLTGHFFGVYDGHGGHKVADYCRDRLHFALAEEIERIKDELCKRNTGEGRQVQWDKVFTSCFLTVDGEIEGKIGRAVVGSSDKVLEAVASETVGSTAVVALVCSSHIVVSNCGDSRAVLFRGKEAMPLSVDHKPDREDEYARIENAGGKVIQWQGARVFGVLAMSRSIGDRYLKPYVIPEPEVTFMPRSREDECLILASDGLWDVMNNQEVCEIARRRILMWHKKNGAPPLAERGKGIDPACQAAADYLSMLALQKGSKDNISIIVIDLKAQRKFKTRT

ΔN-HAB1 = target: T2, ΔN-HAB1 (Arabidopsis thaliana, UniProt Q9CAJ0); assay: phosphatase turnover, […] nm, […] min; assay type: biochemical; settings: 25 mM pNPP, 2 mM MnCl2, 25 mM Tris HCl pH 7.5
T2 sequence (Q9CAJ0 172-511 limits assumed): T1 sequence (Q9CAJ0 172-511 partner limits assumed)

With `Cc1ccc(CS(=O)(=O)Nc2ccc(C#N)c(C3CC3)c2)cc1` [CB] as the compound, how does the IC50 (NbPYL1b) read?
The IC50 was 126 nM.

With `O=[N+]([O-])c1ccc(OP(=O)(O)O)cc1` [pNPP] as the compound, how does the “phosphatase turnover, 405 nm, 30 min” value (ΔN-HAB1) read?
The value was “Phosphatase activity was measured using p-nitrophenyl phosphate (pNPP) as a substrate”.
